According to patent publication US20260217706A1, “HETEROCYCLIC COMPOUNDS, PREPARATION METHOD THEREFOR AND USE THEREOF” (GUANGZHOU YUFAN NANTU BIOTECHNOLOGIES CO., LTD, priority 2023, published 2026):

What follows are compounds tested against CBL-B protein (Homo sapiens, UniProt Q13191) (assay: CBL-B binding experiment (Streptavidin-Tb cryptate / Ligand L1 displacement)). Details: 8 nM CBL-B protein, 25° C., 60 minutes; Ki=Relative IC50/2.
Procedure: The reaction system mainly includes 1× buffer, 20 mM HEPES pH 7.5, 150 mM NaCl, 0.01% Triton X-100, 0.5 mM TCEP, and 0.1% ug/ml BSA. The compound is continuously diluted with DMSO for 10 concentration points, and 150 nL is transferred to the experimental plate. The experimental reaction begins after adding 8 nM of CBL-B protein and the reaction is carried out at 25° C. for 60 minutes. […] After an additional 60 minutes of incubation at room temperature, the experimental plate is read using an EnVision plate. The luminescence signal values were converted to percentage inhibition rates. Inhibition %=(Sample value−Maximum value)/(Minimum value−Maximum value)×100. The minimum value refers to the measured value in the wells without CBL-B protein but with DMSO and Ligand, while the maximum value refers to the measured value in the wells with DMSO, CBL-B protein, and Ligand. The IC50 values are calculated by XLFit (version 5.3.1.3) in Excel. Equation: Y=Bottom+(Top−Bottom)/(1+(IC50/X)^HillSlope); Ki=Relative IC50/2.

CBL-B protein, sequence (Q13191 whole entry): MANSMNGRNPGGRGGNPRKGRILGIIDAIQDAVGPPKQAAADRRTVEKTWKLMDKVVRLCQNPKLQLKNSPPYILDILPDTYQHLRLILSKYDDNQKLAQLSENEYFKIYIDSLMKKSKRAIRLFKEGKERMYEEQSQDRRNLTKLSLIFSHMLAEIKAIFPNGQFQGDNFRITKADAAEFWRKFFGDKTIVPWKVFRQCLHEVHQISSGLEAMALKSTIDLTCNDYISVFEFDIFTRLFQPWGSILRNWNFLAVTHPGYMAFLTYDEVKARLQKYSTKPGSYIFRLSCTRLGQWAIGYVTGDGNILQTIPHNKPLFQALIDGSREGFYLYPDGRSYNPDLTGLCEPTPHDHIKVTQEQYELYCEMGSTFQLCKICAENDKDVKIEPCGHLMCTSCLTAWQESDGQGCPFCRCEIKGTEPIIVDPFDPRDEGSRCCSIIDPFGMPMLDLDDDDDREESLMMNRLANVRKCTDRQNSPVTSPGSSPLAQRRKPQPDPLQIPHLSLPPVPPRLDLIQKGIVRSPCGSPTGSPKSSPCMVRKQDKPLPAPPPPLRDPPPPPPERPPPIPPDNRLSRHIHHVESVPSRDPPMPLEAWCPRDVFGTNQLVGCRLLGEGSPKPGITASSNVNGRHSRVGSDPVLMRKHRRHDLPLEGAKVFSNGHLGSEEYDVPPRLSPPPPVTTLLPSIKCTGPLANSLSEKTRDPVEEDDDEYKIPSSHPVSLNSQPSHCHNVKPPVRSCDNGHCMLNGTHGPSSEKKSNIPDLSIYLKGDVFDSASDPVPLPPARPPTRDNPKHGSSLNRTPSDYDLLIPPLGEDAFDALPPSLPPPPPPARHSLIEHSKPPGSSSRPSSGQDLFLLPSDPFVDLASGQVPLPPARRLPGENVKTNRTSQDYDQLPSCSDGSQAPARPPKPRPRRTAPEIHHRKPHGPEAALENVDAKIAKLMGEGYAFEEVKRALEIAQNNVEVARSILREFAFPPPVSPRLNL

SMILES	Ki [nM]
Cn1cnnc1C1(c2cccc(-n3cc(C(F)(F)F)c4cc(CN5CCC(C(F)F)CC5)[nH]c4c3=O)c2)CCC1 [Compound T112, 2-[[4-(difluoromethyl)-1-piperidyl]methyl]-6-[3-[1-(4-methyl-1,2,4-triazol-3-yl)cyclobutyl]phenyl]-4-(trifluoromethyl)-1H-pyrrolo[2,3-c]pyridin-7-one]	< 50
C[C@@H]1CCN(Cc2cc3c(C(F)(F)F)cn(-c4cccc(C5(c6nncn6C)CCC5)c4)c(=O)c3[nH]2)CC1(F)F [Compound T115, (R)-2-((3,3-difluoro-4-methylpiperidin-1-yl)methyl)-6-(3-(1-(4-methyl-4H-1,2,4-triazol-3-yl)cyclobutyl)phenyl)-4-(trifluoromethyl)-1,6-dihydro-7H-pyrrolo[2,3-c]pyridin-7-one]	50 to 100
C[C@H]1CCN(Cc2cc3c(C(F)(F)F)cn(-c4cccc(C5(c6nncn6C)CCC5)c4)c(=O)c3[nH]2)CC1(F)F [Compound T116, (S)-2-((3,3-difluoro-4-methylpiperidin-1-yl)methyl)-6-(3-(1-(4-methyl-4H-1,2,4-triazol-3-yl)cyclobutyl)phenyl)-4-(trifluoromethyl)-1,6-dihydro-7H-pyrrolo[2,3-c]pyridin-7-one]	50 to 100
CCN(CC)Cc1cc2c(C(F)(F)F)cn(-c3cccc([C@]4(c5nncn5C)C[C@@H](OC)C4)c3)c(=O)c2[nH]1 [Compound T117, 2-((diethylamino)methyl)-6-(3-((1s,3s)-3-methoxy-1-(4-methyl-4H-1,2,4-triazol-3-yl)cyclobutyl)phenyl)-4-(trifluoromethyl)-1,6-dihydro-7H-pyrrolo[2,3-c]pyridin-7-one]	< 50
CCN(CC)Cc1cc2c(C(F)(F)F)cn(-c3cccc([C@]4(c5nncn5C)C[C@H](OC)C4)c3)c(=O)c2[nH]1 [Compound T118, 2-((diethylamino)methyl)-6-(3-((1r,3r)-3-methoxy-1-(4-methyl-4H-1,2,4-triazol-3-yl)cyclobutyl)phenyl)-4-(trifluoromethyl)-1,6-dihydro-7H-pyrrolo[2,3-c]pyridin-7-one]	< 50
Cn1cnnc1C1(c2cccc(-n3cc(C(F)(F)F)c4cc(CN5CCC[C@]6(CCOC6)C5)[nH]c4c3=O)c2)CCC1 [Compound T123, (S)-2-((2-oxa-7-azaspiro[4.5]decan-7-yl)methyl)-6-(3-(1-(4-methyl-4H-1,2,4-triazol-3-yl)cyclobutyl)phenyl)-4-(trifluoromethyl)-1,6-dihydro-7H-pyrrolo[2,3-c]pyridin-7-one]	< 50
Cn1cnnc1C1(c2cccc(-n3cc(C(F)(F)F)c4cc(CN5CCC[C@@]6(CCOC6)C5)[nH]c4c3=O)c2)CCC1 [Compound T124, (R)-2-((2-oxa-7-azaspiro[4.5]decan-7-yl)methyl)-6-(3-(1-(4-methyl-4H-1,2,4-triazol-3-yl)cyclobutyl)phenyl)-4-(trifluoromethyl)-1,6-dihydro-7H-pyrrolo[2,3-c]pyridin-7-one]	100 to 500
Cn1cnnc1C1(c2cccc(-n3cc(C(F)(F)F)c4cc(CN5CCC6(CCOC6)CC5)[nH]c4c3=O)c2)CCC1 [Compound T125, 2-((2-oxa-8-azaspiro[4.5]decan-8-yl)methyl)-6-(3-(1-(4-methyl-4H-1,2,4-triazol-3-yl)cyclobutyl)phenyl)-4-(trifluoromethyl)-1,6-dihydro-7H-pyrrolo[2,3-c]pyridin-7-one]	< 50
CC1CC(c2cc(C(N)=O)cc(-n3cc(C(F)(F)F)c4cc(CN5CCC[C@H](C)C5)[nH]c4c3=O)c2)(c2nncn2C)C1 (stereo partly drawn) [Compound T127, 3-[3-methyl-1-(4-methyl-1,2,4-triazol-3-yl)cyclobutyl]-5-[2-[[(3S)-3-methyl-1-piperidyl]methyl]-7-oxo-4-(trifluoromethyl)-1H-pyrrolo[2,3-c]pyridin-6-yl]benzamide]	< 50

Now from value to compound:

Ki [nM]	SMILES
< 50	CC1CC(c2cc(C(=O)O)cc(-n3cc(C(F)(F)F)c4cc(CN5CCC[C@H](C)C5)[nH]c4c3=O)c2)(c2nncn2C)C1 (stereo partly drawn) [Compound T128, 3-[3-methyl-1-(4-methyl-1,2,4-triazol-3-yl)cyclobutyl]-5-[2-[[(3S)-3-methyl-1-piperidyl]methyl]-7-oxo-4-(trifluoromethyl)-1H-pyrrolo[2,3-c]pyridin-6-yl]benzoic acid]
< 50	C[C@H]1CCCN(Cc2cc3c(C(F)(F)F)cn(-c4cccc(C5(c6nncn6C)COC5)c4)c(=O)c3[nH]2)C1 [Compound T129, (S)-6-(3-(3-(4-methyl-4H-1,2,4-triazol-3-yl)oxetan-3-yl)phenyl)-2-((3-methylpiperidin-1-yl)methyl)-4-(trifluoromethyl)-1,6-dihydro-7H-pyrrolo[2,3-c]pyridin-7-one]
< 50	C[C@@H]1CN(Cc2cc3c(C(F)(F)F)cn(-c4cccc([C@]5(c6nncn6C)C[C@@H](C)C5)c4)c(=O)c3[nH]2)CCN1C(=O)OC(C)(C)C [Compound T141, tert-butyl (2R)-2-methyl-4-[[6-[3-[3-methyl-1-(4-methyl-1,2,4-triazol-3-yl)cyclobutyl]phenyl]-7-oxo-4-(trifluoromethyl)-1H-pyrrolo[2,3-c]pyridin-2-yl]methyl]piperazine-1-carboxylate]
< 50	C[C@@H]1CN(Cc2cc3c(C(F)(F)F)cn(-c4cccc([C@]5(c6nncn6C)C[C@@H](C)C5)c4)c(=O)c3[nH]2)CCN1 [Compound T142, 6-[3-[3-methyl-1-(4-methyl-1,2,4-triazol-3-yl)cyclobutyl]phenyl]-2-[[(3R)-3-methylpiperazin-1-yl]methyl]-4-(trifluoromethyl)-1H-pyrrolo[2,3-c]pyridin-7-one]
< 50	CO[C@H]1C[C@@](c2cccc(-n3cc(C(F)(F)F)c4cc(CN5CC6CC6C5)[nH]c4c3=O)c2)(c2nncn2C)C1 (stereo partly drawn) [Compound T143, 2-((3-azabicyclo[3.1.0]hexan-3-yl)methyl)-6-(3-((1s,3s)-3-methoxy-1-(4-methyl-4H-1,2,4-triazol-3-yl)cyclobutyl)phenyl)-4-(trifluoromethyl)-1,6-dihydro-7H-pyrrolo[2,3-c]pyridin-7-one]
< 50	CO[C@H]1C[C@](c2cccc(-n3cc(C(F)(F)F)c4cc(CN5CC6CC6C5)[nH]c4c3=O)c2)(c2nncn2C)C1 (stereo partly drawn) [Compound T144, 2-((3-azabicyclo[3.1.0]hexan-3-yl)methyl)-6-(3-((1r,3r)-3-methoxy-1-(4-methyl-4H-1,2,4-triazol-3-yl)cyclobutyl)phenyl)-4-(trifluoromethyl)-1,6-dihydro-7H-pyrrolo[2,3-c]pyridin-7-one]
< 50	CO[C@H]1C[C@](c2cccc(-n3cc(C(F)(F)F)c4cc(CN5CC6CCC(C6)C5)[nH]c4c3=O)c2)(c2nncn2C)C1 [Compound T146, 2-((3-azabicyclo[3.2.1]octan-3-yl)methyl)-6-(3-((1r,3r)-3-methoxy-1-(4-methyl-4H-1,2,4-triazol-3-yl)cyclobutyl)phenyl)-4-(trifluoromethyl)-1,6-dihydro-7H-pyrrolo[2,3-c]pyridin-7-one]
< 50	CO[C@H]1C[C@](c2cccc(-n3cc(C(F)(F)F)c4cc(CN5CCCC6(CC6)C5)[nH]c4c3=O)c2)(c2nncn2C)C1 [Compound T148, 2-((5-azaspiro[2.5]octan-5-yl)methyl)-6-(3-((1r,3r)-3-methoxy-1-(4-methyl-4H-1,2,4-triazol-3-yl)cyclobutyl)phenyl)-4-(trifluoromethyl)-1,6-dihydro-7H-pyrrolo[2,3-c]pyridin-7-one]
< 50	CCN(Cc1cc2c(C(F)(F)F)cn(-c3cccc([C@]4(c5nncn5C)C[C@H](OC)C4)c3)c(=O)c2[nH]1)CC(C)C [Compound T150, 2-((ethyl(isobutyl)amino)methyl)-6-(3-((1r,3r)-3-methoxy-1-(4-methyl-4H-1,2,4-triazol-3-yl)cyclobutyl)phenyl)-4-(trifluoromethyl)-1,6-dihydro-7H-pyrrolo[2,3-c]pyridin-7-one]
< 50	CO[C@H]1C[C@@](c2cccc(-n3cc(C(F)(F)F)c4cc(CNCCC5CC5)[nH]c4c3=O)c2)(c2nncn2C)C1 [Compound T153, 2-(((2-cyclopropylethyl)amino)methyl)-6-(3-((1s,3s)-3-methoxy-1-(4-methyl-4H-1,2,4-triazol-3-yl)cyclobutyl)phenyl)-4-(trifluoromethyl)-1,6-dihydro-7H-pyrrolo[2,3-c]pyridin-7-one]
< 50	CO[C@H]1C[C@@](c2cccc(-n3cc(C(F)(F)F)c4cc(CN5CCCC(C(F)F)C5)[nH]c4c3=O)c2)(c2nncn2C)C1 (stereo partly drawn) [Compound T155, 2-((3-(difluoromethyl)piperidin-1-yl)methyl)-6-(3-((1s,3s)-3-methoxy-1-(4-methyl-4H-1,2,4-triazol-3-yl)cyclobutyl)phenyl)-4-(trifluoromethyl)-1,6-dihydro-7H-pyrrolo[2,3-c]pyridin-7-one]
< 50	CCN(Cc1cc2c(C(F)(F)F)cn(-c3cccc([C@]4(c5nncn5C)C[C@H](OC)C4)c3)c(=O)c2[nH]1)C(C)C [Compound T193]
